Test results as given in patent US6780884B2, “Derivating of tryptamine and analogous compounds and pharmaceutical formulations containing them” (Neurim Pharmaceuticals (1991) Ltd., priority 2000, dated 2004).

Columns and labels:
[1] = tested on: Hippocampal Cell Line (HT22); experiment: Glutamate-induced oxidative toxicity in hippocampal cell line (HT22): mitochondrial membrane potential by JC-1 fluorescence ratio; format: cell-based, mouse; conditions: 10^-7 M compound; for protection against glutamate-mediated damage to the mitochondria (in words) / JC-1 ratio B (+glutamate 5 mM) / JC-1 ratio A (control conditions): HT-22 cells; for protection against glutamate-mediated damage to the mitochondria (in words): 5 mM glutamate; for JC-1 ratio B (+glutamate 5 mM) / JC-1 ratio A (control conditions): 24h, fluorescence ratio 530/590:480/530; for JC-1 ratio A (control conditions): control conditions (no glutamate); for effect on mitochondrial membrane potential of the control cells (in words): HT-22 control cells without glutamate; for JC-1 ratio B/A (%): ratio of +glutamate 5 mM to control conditions
Protocol: Table 1: Effects of ML Compounds of the Invention on Glutamate-induced Oxidative Toxicity in Hippocampal Cell Line (HT22)
The changes in the mithochondrial membrane potential was assessed using the fluorescent probe 5,5′,6,6′-tetrachloro-1,1′,3,3′-tetraethylbenzimidazolcarbocyanine iodide (JC-1) according to Nuydens et al, 1999, L of Neuroscience; 92, 153-9. Immortalized mouse hipocampal cells (HT-22) were maintained in Dulbecco's modified minimal essential medium (DMEM) supplemented with 10% fetal bovine serum and passaged by trypsinization. Cells (3000 per 96 palte well) were cultured for 24h with DMEM containing 5 mM glutamate and were treated with 10^−7 M of the ML compounds. Cells were then loaded with JC-1 by changing the culture medium to Phosphate buffered saline (PBS) containing 1 g/L glucose and 10 uM JC-1 for 10 mln. at 37° and were washed once. Flouresence was then measured in a plate reader at excitation/emission wavelengths of 480/530 nm and 530/590 nm. The ratio of the fluoresence intensities in the two wavelengths 530/590:480/530 is an indication of the mitochondrial membrane potential. Decrease in this ratio indicates depolarization of the mitochondrial membrane due to damage induced by anoxic or other phathological situations leading to apoptosis of cells.

[2] = tested on: 125I-Melatonin Binding in Membranes of Hamster Brain; experiment: 125I-Melatonin binding in membranes of hamster brain (competition); conditions: for inhibition of the specific 125I-melatonin binding: 10^-6M; for % bound at competitor concentration 10-6M / 125I-melatonin bound at competitor concentration 10-6M: competitor 10^-6M; for % bound at competitor concentration 10-6M / % bound at competitor concentration 10-7M: relative to competitor concentration 0; for 125I-melatonin bound at competitor concentration 10-6M / 125I-melatonin bound at competitor concentration 10-7M: 125I-melatonin 250 pM, 37° C., 60 min, radioactivity, unit not given; for % bound at competitor concentration 10-7M / 125I-melatonin bound at competitor concentration 10-7M: competitor 10^-7M
Protocol: ^125I-Melatonin Binding in Membranes of Hamster Brain
2 whole hamster brains were homogenized with Teflon-glass homogenizer in 10 vol/g tissue of ice cold Tris-HCl buffer (50 mmol/L Tris, 5 mmol/L CaCl2, pH=7.4) and spun at 10,000 g for 10 min. the supernatant were spun at 100,000 g for two hours to yield a crude synaptosomal pellet (P2).
Aliquots of suspended P2 (20 ul) were incubated at 37° C. with ^125I-melatonin (250 pM) for 60 mln. in Tris-Hcl buffer in the absence or presence of 1 nM-100 μM test-substances (ML compounds and melatonin). The binding reaction was terminated by the addition of 4 ml ice cold Tris buffer. Membranes were then collected by vacuum filtration using GF/C glass fiber filters and washed with 3×4 ml ice-cold buffer. The filters containing the bound ^125I-melatonin were assayed for the amount of radioactivity in a γ counter. […] ML-29, ML-30 and ML-31 (10^−6M) inhibited (≧20%) the specific ^125I-melatonin binding. ML-27, ML-28 and ML-23 reduced the specific ^125I-melatonin binding to a lesser extent (˜13%).

SMILES	protection against glutamate-mediated damage to the mitochondria (in words) [1]	JC-1 ratio B (+glutamate 5 mM) [1]	JC-1 ratio A (control conditions) [1]	effect on mitochondrial membrane potential of the control cells (in words) [1]	JC-1 ratio B/A (%) [1]	inhibition of the specific 125I-melatonin binding [2]	% bound at competitor concentration 10-6M [2]	125I-melatonin bound at competitor concentration 10-6M [2]	% bound at competitor concentration 10-7M [2]	125I-melatonin bound at competitor concentration 10-7M [2]
COc1ccc2[nH]cc(CCNc3ccc([N+](=O)[O-])cc3[N+](=O)[O-])c2c1 [ML-23, N-(2,4-dinitrophenyl)-5-methoxytryptamine, reference compound]	significantly protected	1.97	2.19	did not decrease	90%	~13%	87%	403	94%	435
O=[N+]([O-])c1ccc(NCCc2c[nH]c3ccccc23)c([N+](=O)[O-])c1 [ML-25, N-(2,4-dinitrophenyl)tryptamine]	significantly protected	2.01	2.21	did not decrease	91%		91%	390	92%	396
CC(=O)Nc1cc(NCCc2c[nH]c3ccccc23)c([N+](=O)[O-])cc1[N+](=O)[O-] [ML-26, 2,4-dinitro-5-tryptylaminoacetanilide]	significantly protected	2.11	2.16	did not decrease	98%		99%	411	104%	435
Nc1cc(NCCc2c[nH]c3ccccc23)c([N+](=O)[O-])cc1[N+](=O)[O-] [ML-27, N-(2,4-dinitro-5-aminophenyl)tryptamine]	significantly protected	1.83	1.80	decreased	102%	~13%	87%	426	92%	448
Cc1ccc2[nH]cc(CCNc3ccc([N+](=O)[O-])cc3[N+](=O)[O-])c2c1 [ML-28, N-(2,4-dinitrophenyl)-5-methyltryptamine]	did not protect	2.28	2.77	elevated	82%	~13%	87%	365	91%	381
CC(=O)Nc1cc(NCCc2c[nH]c3ccc(C)cc23)c([N+](=O)[O-])cc1[N+](=O)[O-] [ML-29, 2,4-dinitro-5-(5′-methyltryptyl)aminoacetanilide]	without providing protection	1.79	2.28	decreased	78%		80%	358	90%	404
COc1ccc2[nH]cc(CCNc3cc(NC(C)=O)c([N+](=O)[O-])cc3[N+](=O)[O-])c2c1 [ML-30, 2,4-dinitro-5-(5′-methoxytryptyl)aminoacetanilide]	significantly protected	2.13	1.83	decreased	116%		80%	409	96%	488
Cc1ccc2[nH]cc(CCNc3cc(N)c([N+](=O)[O-])cc3[N+](=O)[O-])c2c1 [ML-31, N-(2,4-dinitro-5-aminophenyl)-5′-methyltryptamine]	without providing protection	1.57	1.93	decreased	81%		72%	334	94%	438
COc1ccc2[nH]cc(CCNc3cc(N)c([N+](=O)[O-])cc3[N+](=O)[O-])c2c1 [ML-32, N-(2,4-dinitro-5-aminophenyl)-5′-methoxytryptamine]	without providing protection	1.76	2.15	decreased	82%		93%	419	90%	408
COc1ccc2[nH]cc(CCNC(C)=O)c2c1 [Melatonin, reference compound]	significantly protected	2.44	2.48		98%	20%	79%	335	89%	377
